Legend:
[1] = tested on: macrophage RAW 264.7 cells; assay: LPS-induced NO2− formation in macrophage RAW 264.7 cells (Griess); format: cell-based; conditions: 25 μM pretreatment 6 hours, LPS 1.0 μg/mL 18 hours
Method: In this example, the ability of embodiments of the disclosed donor compound to provide anti-inflammatory activity was evaluated. To investigate the potential protective effects of the developed donors, pretreated macrophage RAW 264.7 cells were pretreated with γ-KetoTCM-1 (25 μM) for 6 hours, followed by an 18-hour incubation with lipopolysaccharide (LPS, 1.0 μg/mL) to induce an inflammatory response. This response is accompanied by an increase in NO production, which was monitored by measuring nitrite (NO2−) accumulation. To determine whether the observed effects were due to COS/H2S release, control experiments with γ-KetoTCM-3, γ-KetoCM-1, and GYY4137 under the identical condition also were performed. GYY4137 was used as a positive control because it has shown anti-inflammatory effects previously, and because it generates a slow, continuous release of H2S.
In this example, macrophage RAW 264.7 cells were seeded in a 24-well plate (5×10^5 cells/well) containing 0.50 mL of DMEM and incubated at 37° C. under 5% CO2 for 24 hours. The confluent cells were washed with PBS and incubated with either γ-KetoTCM-1, γ-KetoTCM-3, γ-KetoCM-1, or GYY4137 (25.0 μM) at 37° C. for 6 hours. Compounds were then removed by washing cells with PBS and these pretreated cells were incubated in FBS-free DMEM containing LPS (1.00 μg/mL) for 18 hours. NO2− levels were measured by using a Griess Reagent Kit.

[2] = COS/H2S release monitored by PNA formation (UV-Vis) in PBS containing CA; format: physicochemical; conditions: for half-life at 50 μM: PBS containing carbonic anhydrase (CA); for half-life at 50 μM / kobs (COS/H2S releasing kinetics): 37° C.; for kobs (COS/H2S releasing kinetics): CA 25 μg/mL, 50 μM; for krel: relative to γ-KetoTCM-1 at pH 7.4
Method: To investigate COS/H2S release from donor compound embodiments, γ-KetoTCM-1 (50 μM) was incubated in PBS (pH 7.4, 10 mM) containing CA (25 μg/mL) and H2S release was detected by monitoring para-nitroaniline (PNA) formation at 37° C. In particular, a γ-KetoTCM-1 stock solution (15.0 μL, 10.0 mM in DMSO) was added to 3.00 mL of PBS (pH 6.00, 7.40 or 8.00, 10.0 mM) containing CA (25.0 μg/mL) in a quartz UV cuvette. The absorbance (250-500 nm) was measured and recorded by using Agilent Cary 100 or Cary 60 UV-Vis spectrometers at 37° C. kobs was then obtained by plotting the absorbance ratio of PNA and γ-KetoTCM-1 versus time and t1/2 was calculated by dividing In(2) by kobs.
In this example, pH effects on COS/H2S release were investigated by incubating γ-KetoTCM-1 (50 μM) in PBS (pH 6.0-8.0) and monitoring with a UV-Vis spectrometer. […] In particular, a γ-KetoTCM-1 stock solution (15.0 μL, 10.0 mM in DMSO) was added to 3.00 mL of PBS (pH 6.00, 10.0 mM) containing CA (25.0 μg/mL) in a 3-mL UV cuvette. The absorbance (250-500 nm) was measured and recorded at 37° C. kobs was then obtained by plotting the absorbance ratio of PNA and γ-KetoTCM-1 vs time.

[3] = tested on: HeLa cells; assay: H2S delivery in HeLa cells imaged with SF7-AM fluorescent probe; format: cell-based; conditions: 100 μM, 2 hours
Method: In this example, it was evaluated whether γ-KetoTCM-based donors can be activated to deliver H2S in cellular environments. SF7-AM, a cell-trappable H2S fluorescent probe, was used to monitor H2S accumulation from γ-KetoTCM-1 in HeLa cells. In the absence of γ-KetoTCM-1, no fluorescent signal from SF7-AM was observed, indicating negligible endogenous H2S (FIG. 9, left column, including the top and bottom images).
HeLa cells were plated in poly-D-lysine coated plates (MatTek) containing 2.00 mL of DMEM and incubated at 37° C. under 5% CO2 for 24 hours. The confluent cells were washed with PBS and then co-incubated with SF7-AM (5.00 μM) and NucBlue nuclear dye (2 drops) for 30 minutes. The cells were then washed with PBS and incubated with either γ-KetoTCM-1 (100 μM) or γ-KetoCM-1 (100 μM) alone for 2 hours. Prior to imaging, the cells were washed with PBS and bathed in 2.00 mL of PBS. Cell imaging was performed on a Leica DMi8 fluorescent microscope.

[4] = Effects of cellular nucleophiles on COS/H2S release (PNA formation, UV-vis); format: physicochemical; conditions: PBS pH 7.4, Cys, NAC, Hcy, GSH, Lys, Ser, Gly, GSSG, 4-hour incubation, 37° C.
Method: To determine the effects of cellular nucleophiles on COS/H2S release, γ-KetoTCM-1 was incubated in […] PBS buffer (pH 7.4, 10 mM) containing (1) no cellular nucleophile (FIG. 4, bar 1); or 250 μM of Cys (FIG. 4, bar 2), 250 μM of N-acetyl cysteine (NAC) (FIG. 4, bar 3), 250 μM of homocysteine (Hcy) (FIG. 4, bar 4), 250 μM of GSH […] (FIG. 4, bar 5), 250 μM of lysine (Lys) (FIG. 4, bar 6), 250 μM of serine (Ser) (FIG. 4, bar 7), 250 μM of glycine (Gly) (FIG. 4, bar 8), or 250 μM of oxidized glutathione (GSSG) (FIG. 4, bar 9) at 37° C. PNA formation was monitored and recorded after a 4-hour incubation using UV-vis spectroscopy.

[5] = H2S release observed with an H2S electrode at different pH; format: physicochemical; conditions: PBS pH 6.0-8.0
Description: H2S release was also observed by using an H2S electrode, confirming that H2S was released in this system and such H2S release was pH-dependent (FIGS. 3A and 3B). This example therefore establishes that COS/H2S release from compound embodiments of the present disclosure can be pH dependent.

[6] = COS/H2S release monitored by PNA formation (UV-Vis) in PBS containing BSA and CA; format: physicochemical
Method: In this example, compound activation and subsequent COS/H2S release in PBS containing bovine serum albumin (BSA) was evaluated to mimic a complex biological environment. γ-KetoTCM-1 (50 μM) was incubated in PBS (pH 7.4, 10 mM) containing BSA (5 mg/mL) and CA (25 μg/mL) at 37° C. In particular, A γ-KetoTCM-1 stock solution (15.0 μl_, 10.0 mM in DMSO) was added to 3.00 mL of PBS (pH 7.40, 10.0 mM) containing BSA (5.00 mg/mL) and CA (25.0 μg/mL) in a quartz UV cuvette. The absorbance (250-500 nm) was measured and recorded by using an Agilent Cary 100 UV-Vis spectrometer at 37° C.

[7] = H2S production measured by methylene blue (MB) assay in PBS containing BSA and CA; format: physicochemical; conditions: 37° C.
Method: Using the same conditions, H2S production was measured at different time points using the MB assay (FIG. 5A, curve labeled with the “▾” symbol). The MB assay allows for H2S quantification from the reaction of H2S with N,N-dimethyl-p-phenylenediamine in the presence of FeCl3 and acid to produce methylene blue (MB, λmax=670). In the MB assay, a γ-KetoTCM-1 stock solution (100 μL, 10.0 mM in DMSO) was added to 20.0 mL of PBS (pH 7.40, 10.0 mM) containing BSA (5.00 mg/mL) and CA (25.0 μg/mL) in a 25-mL scintillation vial at 37° C. Next, 0.300 mL aliquots of the reaction mixture were transferred to UV cuvettes containing 0.300 mL of MB cocktail at different time points. The MB reaction mixture was incubated at room temperature for 1 hour and the precipitate was removed using syringe filters. The absorbance at 670 nm was then measured and was converted to H2S concentration by using the H2S calibration curve in FIG. 6. […] The MB solution was allowed to react with H2S for 1 hour before measuring the absorbance at 670 nm.
The linearity between these two methods was lost after 60 minutes due to the oxidation of H2S in the MB assay at extended incubation times (FIG. 5A). […] The absorbance at 670 nm was then measured and converted to H2S concentration by using the H2S calibration curve in FIG. 6. […]

Row | SMILES | effect on LPS-induced NO2− production [1] | SF7-AM fluorescence (H2S accumulation) [3] | half-life at 50 μM ([2]; pH 7.4, pH 7.4 PBS, ln(2)/kobs) [h] | kobs (COS/H2S releasing kinetics) ([2]; pH 7.4 PBS) | krel ([2]; pH 7.4 PBS) | also measured
1 | C1COCCN1.COc1ccc(P(=S)(S)N2CCOCC2)cc1 (stereo not drawn) [GYY4137, reference compound] | less pronounced effect |  |  |  |  | 
2 | CC(=O)C(C)(C)COC(=S)Nc1ccc([N+](=O)[O-])cc1 [γ-KetoTCM-3] | modest reduction |  |  |  |  | PNA released in PBS buffer (indicating COS/H2S release) ([2]; PBS pH 7.4, 37° C.): negligible
3 | CC(=O)CCOC(=S)Nc1ccc([N+](=O)[O-])cc1 [γ-KetoTCM-1] | significantly reduced | significant increase in SF7-AM fluorescence | 4.26 | 4.52±0.02 ×10^−5 s^−1 | 1.00 | PNA formation in presence of cellular nucleophiles versus background [4]: None of the tested nucleophiles resulted in substantial PNA formation; half-life at 50 μM ([2]; pH 6, pH 6.0 PBS, ln(2)/kobs): 50.7 ± 0.8 h; half-life at 50 μM ([2]; pH 8, pH 8.0 PBS): 1.53 ± 0.03 h; kobs (COS/H2S releasing kinetics) ([2]; pH 6.0 PBS): 0.380 ± 0.006 ×10^−5 s^−1; krel ([2]; pH 6.0 PBS): 0.084; kobs (COS/H2S releasing kinetics) ([2]; pH 8.0 PBS): 12.6 ± 0.2 ×10^−5 s^−1; krel ([2]; pH 8.0 PBS): 2.79; H2S release by H2S electrode [5]: pH-dependent; half-life at 50 μM ([6]; PBS containing BSA and carbonic anhydrase (CA), pH 7.4 PBS containing BSA (5 mg/mL), 37° C.): 0.24 ± 0.01 h; pseudo first-order rate constant kobs from fitting the UV-vis data ([6]; PBS pH 7.4, BSA 5 mg/mL, CA, 37° C.): 8.1±0.3 ×10^−4 s^−1; kobs (COS/H2S releasing kinetics) ([6]; pH 7.4 PBS containing BSA (5 mg/mL), CA, 37° C.): 81.0 ± 3.0 ×10^−5 s^−1; krel ([6]; pH 7.4 PBS containing BSA (5 mg/mL), relative to pH 7.4 without BSA): 18.0; H2S release efficiency ([7]; MB assay, 50 μM, PBS pH 7.4, BSA): 70%; pseudo first-order rate constant kobs from fitting the MB data ([7]; PBS pH 7.4, BSA 5 mg/mL, up to plateau (~60 minutes)): 8.6±0.9 ×10^−4 s^−1
4 | CC(=O)CCOC(=O)Nc1ccc([N+](=O)[O-])cc1 [γ-KetoCM-1] | reduced NO2− levels, although to a lesser extent than γ-KetoTCM-1 | failed to provide a SF7-AM signal | 13.4 ± 0.3 | 1.44 ± 0.03 ×10^−5 s^−1 | 0.32 | 
5 | CC(=O)C(C)COC(=S)Nc1ccc([N+](=O)[O-])cc1 (stereo not drawn) [γ-KetoTCM-2] |  |  | 25.9 | 0.82 ± 0.02 ×10^−5 s^−1 | 0.188 | 

Source: patent US11981626B1, “Compound embodiments for hydrogen sulfide production and methods of making and using the same” (University of Oregon, priority 2018, dated 2024)
